# Laboratory results reported in PubChem BioAssay (NCI).
#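 A five-concentration, 48-hour dose response in 96-well plates underlies each endpoint, interpolated linearly between surrounding concentrations. TGI is the concentration that stops growth completely.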
# How the values were obtained:
# Experiment in all cases: NCI tumour cell line growth inhibition, 48 h
# SW-620 colon = test system: SW-620 colon
# COLO 205 colon = test system: COLO 205 colon
# HOP-18 NSCLC = test system: HOP-18 NSCLC
# EKVX NSCLC = test system: EKVX NSCLC
# NCI-H23 lung = test system: NCI-H23 lung
# KM12 colon = test system: KM12 colon
# OVCAR-8 ovarian = test system: OVCAR-8 ovarian
# HOP-62 NSCLC = test system: HOP-62 NSCLC
# UO-31 renal = test system: UO-31 renal
# SK-OV-3 ovarian = test system: SK-OV-3 ovarian
# SNB-19 CNS = test system: SNB-19 CNS
# LXFL 529 NSCLC = test system: LXFL 529 NSCLC
# SK-MEL-2 melanoma = test system: SK-MEL-2 melanoma
# K-562 leukemia = test system: K-562 leukemia
# OVCAR-5 ovarian = test system: OVCAR-5 ovarian
# KM20L2 colon = test system: KM20L2 colon
# MALME-3M melanoma = test system: MALME-3M melanoma
# CCRF-CEM leukemia = test system: CCRF-CEM leukemia
# NCI-H522 lung = test system: NCI-H522 lung
# RXF-631 renal = test system: RXF-631 renal
# UACC-62 melanoma = test system: UACC-62 melanoma
# UACC-257 melanoma = test system: UACC-257 melanoma
# SF-295 CNS = test system: SF-295 CNS
# SNB-78 CNS = test system: SNB-78 CNS
# M19-MEL melanoma = test system: M19-MEL melanoma
# HL-60(TB) leukemia = test system: HL-60(TB) leukemia
# A549 NSCLC = test system: A549 NSCLC
# HT29 colon = test system: HT29 colon
# SNB-75 CNS = test system: SNB-75 CNS
# OVCAR-3 ovarian = test system: OVCAR-3 ovarian
# HCT-116 colon = test system: HCT-116 colon
# RXF 393 renal = test system: RXF 393 renal
# HCC-2998 colon = test system: HCC-2998 colon
# SF-268 CNS = test system: SF-268 CNS
# A498 renal = test system: A498 renal
# U251 CNS = test system: U251 CNS
# OVCAR-4 ovarian = test system: OVCAR-4 ovarian
# HOP-92 NSCLC = test system: HOP-92 NSCLC
# SN12C renal = test system: SN12C renal
# TK-10 renal = test system: TK-10 renal
# MOLT-4 leukemia = test system: MOLT-4 leukemia
# M14 melanoma = test system: M14 melanoma
# CAKI-1 renal = test system: CAKI-1 renal
# XF 498 CNS = test system: XF 498 CNS
# IGROV1 ovarian = test system: IGROV1 ovarian
# DLD-1 colon = test system: DLD-1 colon
# 786-0 renal = test system: 786-0 renal
# DMS 273 small cell lung = test system: DMS 273 small cell lung
# SR leukemia = test system: SR leukemia
# SF-539 CNS = test system: SF-539 CNS
# ACHN renal = test system: ACHN renal
# NCI-H226 lung = test system: NCI-H226 lung
# RPMI-8226 leukemia = test system: RPMI-8226 leukemia
# NCI-H460 lung = test system: NCI-H460 lung
# HCT-15 colon = test system: HCT-15 colon
# LOX IMVI melanoma = test system: LOX IMVI melanoma
# DMS 114 small cell lung = test system: DMS 114 small cell lung
# SK-MEL-28 melanoma = test system: SK-MEL-28 melanoma
# SK-MEL-5 melanoma = test system: SK-MEL-5 melanoma
# NCI/ADR-RES ovarian = test system: NCI/ADR-RES ovarian
# P388/ADR leukemia = test system: P388/ADR leukemia
# SN12K1 renal = test system: SN12K1 renal
# P388 leukemia = test system: P388 leukemia
# MCF7 breast = test system: MCF7 breast
smiles,measurement,setting,value
C[n+]1c2ccccc2c(CNC(CS)C(=O)O)c2ccccc21 (stereo not given),TGI,SW-620 colon,> 100 µM
same,TGI,COLO 205 colon,47.8 µM
same,TGI,HOP-18 NSCLC,> 100 µM
same,TGI,EKVX NSCLC,> 100 µM
same,TGI,NCI-H23 lung,> 100 µM
same,TGI,KM12 colon,57.5 µM
same,TGI,OVCAR-8 ovarian,75 µM
same,TGI,HOP-62 NSCLC,39.1 µM
same,TGI,UO-31 renal,58 µM
same,TGI,SK-OV-3 ovarian,56.8 µM
same,TGI,SNB-19 CNS,> 100 µM
same,TGI,LXFL 529 NSCLC,> 100 µM
same,TGI,SK-MEL-2 melanoma,76.8 µM
same,TGI,K-562 leukemia,> 100 µM
same,TGI,OVCAR-5 ovarian,> 100 µM
same,TGI,KM20L2 colon,82 µM
same,TGI,MALME-3M melanoma,92.1 µM
same,TGI,CCRF-CEM leukemia,62.4 µM
same,TGI,NCI-H522 lung,34.8 µM
same,TGI,RXF-631 renal,70.4 µM
same,TGI,UACC-62 melanoma,29.6 µM
same,TGI,UACC-257 melanoma,> 100 µM
same,TGI,SF-295 CNS,63.4 µM
same,TGI,SNB-78 CNS,> 100 µM
same,TGI,M19-MEL melanoma,90.6 µM
same,TGI,HL-60(TB) leukemia,43.4 µM
same,TGI,A549 NSCLC,83.9 µM
same,TGI,HT29 colon,> 100 µM
same,TGI,SNB-75 CNS,47.7 µM
same,TGI,OVCAR-3 ovarian,62 µM
same,TGI,HCT-116 colon,37.8 µM
same,TGI,RXF 393 renal,59.8 µM
same,TGI,HCC-2998 colon,> 100 µM
same,TGI,SF-268 CNS,> 100 µM
same,TGI,A498 renal,53.8 µM
same,TGI,U251 CNS,66.7 µM
same,TGI,OVCAR-4 ovarian,> 100 µM
same,TGI,HOP-92 NSCLC,52 µM
same,TGI,SN12C renal,> 100 µM
same,TGI,TK-10 renal,> 100 µM
same,TGI,MOLT-4 leukemia,36.7 µM
same,TGI,M14 melanoma,> 100 µM
same,TGI,CAKI-1 renal,70.5 µM
same,TGI,XF 498 CNS,40.3 µM
same,TGI,IGROV1 ovarian,67.2 µM
same,TGI,DLD-1 colon,> 100 µM
same,TGI,786-0 renal,> 100 µM
same,TGI,DMS 273 small cell lung,57.3 µM
same,TGI,SR leukemia,32.4 µM
same,TGI,SF-539 CNS,35.8 µM
same,TGI,ACHN renal,> 100 µM
same,TGI,NCI-H226 lung,82.1 µM
same,TGI,RPMI-8226 leukemia,50.5 µM
same,TGI,NCI-H460 lung,47.9 µM
same,TGI,HCT-15 colon,55.1 µM
N#CC1C(=O)NC(=O)C1=O (stereo not given),TGI,SW-620 colon,> 100 µM
same,TGI,COLO 205 colon,> 100 µM
same,TGI,HOP-18 NSCLC,> 100 µM
same,TGI,EKVX NSCLC,> 100 µM
same,TGI,LOX IMVI melanoma,> 100 µM
same,TGI,NCI-H23 lung,> 100 µM
same,TGI,KM12 colon,> 100 µM
same,TGI,OVCAR-8 ovarian,> 100 µM
same,TGI,HOP-62 NSCLC,> 100 µM
same,TGI,UO-31 renal,> 100 µM
same,TGI,SK-OV-3 ovarian,> 100 µM
same,TGI,SNB-19 CNS,> 100 µM
same,TGI,LXFL 529 NSCLC,> 100 µM
same,TGI,SK-MEL-2 melanoma,> 100 µM
same,TGI,K-562 leukemia,> 100 µM
same,TGI,OVCAR-5 ovarian,> 100 µM
same,TGI,KM20L2 colon,> 100 µM
same,TGI,MALME-3M melanoma,> 100 µM
same,TGI,NCI-H522 lung,> 100 µM
same,TGI,RXF-631 renal,> 100 µM
same,TGI,UACC-62 melanoma,> 100 µM
same,TGI,UACC-257 melanoma,> 100 µM
same,TGI,SF-295 CNS,> 100 µM
same,TGI,SNB-78 CNS,> 100 µM
same,TGI,M19-MEL melanoma,> 100 µM
same,TGI,DMS 114 small cell lung,> 100 µM
same,TGI,HT29 colon,> 100 µM
same,TGI,SNB-75 CNS,> 100 µM
same,TGI,OVCAR-3 ovarian,> 100 µM
same,TGI,HCT-116 colon,> 100 µM
same,TGI,RXF 393 renal,> 100 µM
same,TGI,HCC-2998 colon,> 100 µM
same,TGI,SF-268 CNS,> 100 µM
same,TGI,A498 renal,> 100 µM
same,TGI,U251 CNS,> 100 µM
same,TGI,OVCAR-4 ovarian,> 100 µM
same,TGI,HOP-92 NSCLC,> 100 µM
same,TGI,SN12C renal,> 100 µM
same,TGI,SK-MEL-28 melanoma,> 100 µM
same,TGI,TK-10 renal,> 100 µM
same,TGI,MOLT-4 leukemia,> 100 µM
same,TGI,M14 melanoma,> 100 µM
same,TGI,CAKI-1 renal,> 100 µM
same,TGI,XF 498 CNS,> 100 µM
same,TGI,IGROV1 ovarian,> 100 µM
same,TGI,786-0 renal,> 100 µM
same,TGI,DMS 273 small cell lung,> 100 µM
same,TGI,SF-539 CNS,> 100 µM
same,TGI,SK-MEL-5 melanoma,> 100 µM
same,TGI,ACHN renal,> 100 µM
same,TGI,NCI-H226 lung,> 100 µM
same,TGI,RPMI-8226 leukemia,> 100 µM
same,TGI,NCI-H460 lung,> 100 µM
same,TGI,HCT-15 colon,> 100 µM
CC1C(=O)C(C)C(c2ccco2)N(N=O)C1c1ccco1 (stereo not given),TGI,SW-620 colon,> 100 µM
same,TGI,NCI/ADR-RES ovarian,> 100 µM
same,TGI,P388/ADR leukemia,> 100 µM
same,TGI,COLO 205 colon,> 100 µM
same,TGI,HOP-18 NSCLC,> 100 µM
same,TGI,EKVX NSCLC,> 100 µM
same,TGI,LOX IMVI melanoma,> 100 µM
same,TGI,SN12K1 renal,> 100 µM
same,TGI,NCI-H23 lung,> 100 µM
same,TGI,KM12 colon,> 100 µM
same,TGI,OVCAR-8 ovarian,> 100 µM
same,TGI,HOP-62 NSCLC,> 100 µM
same,TGI,UO-31 renal,> 100 µM
same,TGI,SK-OV-3 ovarian,> 100 µM
same,TGI,SNB-19 CNS,> 100 µM
same,TGI,SK-MEL-2 melanoma,> 100 µM
same,TGI,K-562 leukemia,> 100 µM
same,TGI,OVCAR-5 ovarian,> 100 µM
same,TGI,KM20L2 colon,> 100 µM
same,TGI,MALME-3M melanoma,> 100 µM
same,TGI,CCRF-CEM leukemia,> 100 µM
same,TGI,NCI-H522 lung,> 100 µM
same,TGI,UACC-62 melanoma,> 100 µM
same,TGI,UACC-257 melanoma,> 100 µM
same,TGI,SF-295 CNS,> 100 µM
same,TGI,SNB-78 CNS,> 100 µM
same,TGI,M19-MEL melanoma,> 100 µM
same,TGI,HL-60(TB) leukemia,> 100 µM
same,TGI,A549 NSCLC,> 100 µM
same,TGI,HT29 colon,> 100 µM
same,TGI,SNB-75 CNS,> 100 µM
same,TGI,OVCAR-3 ovarian,> 100 µM
same,TGI,HCT-116 colon,> 100 µM
same,TGI,RXF 393 renal,> 100 µM
same,TGI,P388 leukemia,> 100 µM
same,TGI,HCC-2998 colon,> 100 µM
same,TGI,SF-268 CNS,> 100 µM
same,TGI,MCF7 breast,> 100 µM
same,TGI,A498 renal,> 100 µM
same,TGI,U251 CNS,> 100 µM
same,TGI,OVCAR-4 ovarian,> 100 µM
same,TGI,HOP-92 NSCLC,> 100 µM
same,TGI,SN12C renal,> 100 µM
same,TGI,SK-MEL-28 melanoma,> 100 µM
same,TGI,MOLT-4 leukemia,> 100 µM
same,TGI,CAKI-1 renal,> 100 µM
same,TGI,XF 498 CNS,50.5 µM
same,TGI,IGROV1 ovarian,> 100 µM
same,TGI,DLD-1 colon,> 100 µM
same,TGI,DMS 273 small cell lung,> 100 µM
same,TGI,SF-539 CNS,> 100 µM
same,TGI,SK-MEL-5 melanoma,> 100 µM
same,TGI,NCI-H226 lung,> 100 µM
same,TGI,RPMI-8226 leukemia,> 100 µM
same,TGI,NCI-H460 lung,> 100 µM
same,TGI,HCT-15 colon,> 100 µM
